{"source": "patent US20160214941A1", "about": "“Compounds for lnhibition of Unregulated Cell Growth” (GODAVARI BIOREFINERIES LIMITED, priority 2013, published 2016)", "assay_type_in_all_cases": "cell-based", "key": {"[1]": {"system": "PC3 (Prostrate Cancer) cells", "assay": "CD44 and CD24 expression on PC3 cells by Flow Cytometry", "conditions": "48 hours", "method": "A study was conducted to determine the effect of compound of Formula IV and Cisplatin on CD44 and CD24 expression on PC3 (Prostrate Cancer) cells by Flow Cytometry. PC3 cells (0.35×106) were cultured in R.P.M.I (Roswell Park Memorial Institute Medium)-1640 cell culture medium with 10% F.B.S (Fetal Bovine Serum) on 60 mm TC (Tissue Culture) plates. Cells were exposed to IC10 drug concentration of Cisplatin & IC10 drug concentration of compound of Formula IV in duplicates. Similarly other sets were exposed to IC25 drug concentration of Cisplatin & compound of Formula IV in duplicates. IC10 and IC25 drug concentrations were calculated as per MTT results. All the sets were incubated at 37° C., 5% CO2 for 48 hours. After 48 hours, cells were observed under the microscope. Cells were trypsinised, washed with D.P.B.S. (Dulbecco's Phosphate Buffered Saline) and 50 μL of cells were taken for each set and 5 μL of each of CD24 and CD44 antibodies were added. CD24-FITC (Fluorescein isothiocyanate) labeled & CD44-PE (Phycoerythrin) labeled was used for the study. The sets were incubated for 45 minutes at 4° C. in dark for proper binding of antibodies. After incubation the cells were washed with 200 μL of D.P.B.S., supernatant was discarded and the cells were finally suspended in 300 μL of FACS buffer (4% F.B.S in D.P.B.S.). […]"}, "MDA MB 231 cell line": {"system": "MDA MB 231 cell line", "assay": "In vitro 3D sphere forming stem cell assay", "method": "In Vitro 3D Sphere Forming Stem Cell Assay Compounds of Formula III & IV were evaluated in an in vitro 3D sphere forming stem cell assay as described by Rajasekhar, V K, Analytical Methods for Cancer Stem Cells. Methods in Molecular Biology, 2007, Volume 407, 83-95.\nAn exemplary procedure for the in vitro 3D sphere forming stem cell assay is described as follows. Breast Cancer Cells were grown in two dimensions on a plastic substrate, harvested in suspension in serum-free media, then the cells in the sample were trypsinized and a single cell suspension was formed by passing through a cell strainer. The cells were diluted according to the predetermined plating efficiency for the cell line being studied by suspending the cells in stem cell culture medium. 100 uL of this suspension was added into each well of a 96 well suspension plate, and the plate was incubated at 37° C. in 5% CO2 atmosphere for 24 hours, then 2 uL of appropriate concentrations of the drugs was added into each respective well along with 100 uL of stem cell culture medium, and the plates incubated at 37° C. under 5% CO2 atmosphere for 72 hours. 2.5 uL of the appropriate drug concentration (Formula III and Formula IV) of was then added to each respective well along with 50 uL of stem cell culture medium, then the plates incubated at 37° C. under 5% CO2 atmosphere for 72 hours. 3 uL of the appropriate drug concentration was added to each respective well along with 50 uL of stem cell culture medium, then incubated at 37° C. under 5% CO2 atmosphere for 72 hours, the spheres formed were observed under a microscope then counted and scored by size.\nThe number in each box is the total number of spheres formed in the presence of either cisplatin, compound of Formula III or compound of Formula IV at each drug concentration. GC refers to a growth control performed in the absence of drug or solvent (DMSO). GCD refers to a growth control performed in the absence of drug, but in the presence of DMSO."}, "DU145": {"system": "DU145", "assay": "In vitro soft agar colony forming growth assay", "conditions": "DU145, one week", "method": "(§1) Compounds of Formula IV were evaluated in an in vitro soft agar colony forming growth inhibition assay as described by Lieber, M M, and Kovach, J S. Soft agar colony formation assay for chemotherapeutic sensitivity of human solid tumors. Mayo Clin Proc 1982; 57: 527-528 and Tanigawa, N, Kern, D H, Kikasa, Y, and Morton, D L. Rapid assay for evaluating the chemosensitivity of human tumors in soft agar culture. Cancer Res 1982; 42: 2159-2164.\n(§2) An exemplary procedure for the in vitro soft agar colony forming growth inhibition assay is as follows."}, "T47D [2]": {"system": "T47D", "assay": "In vitro soft agar colony forming growth assay", "conditions": "one week", "method": "as §1, §2"}, "LnCaP [3]": {"system": "LnCaP", "assay": "In vitro soft agar colony forming growth assay", "conditions": "one week", "method": "as §1, §2"}, "HCT-15 [4]": {"system": "HCT-15", "assay": "In vitro soft agar colony forming growth assay", "conditions": "HCT-15, one week", "method": "as §1, §2"}, "PC3": {"system": "PC3", "assay": "In vitro soft agar colony forming growth assay", "conditions": "PC3, one week", "method": "as §1, §2"}, "L929 [5]": {"system": "L929", "assay": "In vitro soft agar colony forming growth assay", "conditions": "L929, one week", "method": "as §1, §2"}, "SiHa [6]": {"system": "SiHa", "assay": "In vitro soft agar colony forming growth assay", "conditions": "one week", "method": "as §1, §2"}, "T47D [7]": {"system": "T47D", "assay": "In vitro colorimetric cell death assay (MTT assay)", "conditions": "T47D (breast cancer), 48 hours", "method": "(§3) MTT assay was carried for assessing cell viability where the cells were grown in two-dimensional surface. The procedure for the assay is as follows. Cancer cells were plated in 96 well plates as per predetermined plating efficiency. The plates were incubated for 24 hours in a 5% CO2 atmosphere at 37° C., a range of concentrations of the compound of the present invention was added to the wells, the plates were incubated further for 48 hours in a 5% CO2 atmosphere, the plates were centrifuged twice at 3000 rpm for 3 minutes, the supernatant fluid was discarded, 100 uL of 0.5 mg/mL MIT solution was added and the plates were incubated for 4 hours in a 5% CO2 atmosphere at 37° C. The plates were then centrifuged twice at 3000 rpm for 3 minutes, supernatant was aspirated very carefully, 200 uL DMSO was added to each well to solubilize MTT crystals and mixed well by shaking the plates, the plates were incubated for 10 minutes in a 5% CO2 atmosphere at 37° C., the plates were placed on the shaker of an ELISA plate reader and the absorbance at 570 nm was measured, then the percentage of viable cells remaining was calculated by first subtracting the background absorbance then comparing to the absorbance of a non-drug-treated cell sample, and the results were plotted on a graph to determine the IC50 for the compound as known in the art. The reference drug used was Cisplatin."}, "Colo205": {"system": "Colo205", "assay": "In vitro colorimetric cell death assay (MTT assay)", "conditions": "Colo205 (colon cancer), 48 hours", "method": "as §3"}, "LnCaP [8]": {"system": "LnCaP", "assay": "In vitro colorimetric cell death assay (MTT assay)", "conditions": "LnCaP (prostate cancer), 48 hours", "method": "as §3"}, "NCIH23": {"system": "NCIH23", "assay": "In vitro colorimetric cell death assay (MTT assay)", "conditions": "NCIH23 (lung cancer), 48 hours", "method": "as §3"}, "Colo320": {"system": "Colo320", "assay": "In vitro colorimetric cell death assay (MTT assay)", "conditions": "Colo320 (colon cancer), 48 hours", "method": "as §3"}, "HCT-15 [9]": {"system": "HCT-15", "assay": "In vitro colorimetric cell death assay (MTT assay)", "conditions": "HCT-15 (colon cancer), 48 hours", "method": "as §3"}, "L929 [10]": {"system": "L929", "assay": "In vitro colorimetric cell death assay (MTT assay)", "conditions": "L929 (fibroblast), 48 hours", "method": "as §3"}, "SiHa [11]": {"system": "SiHa", "assay": "In vitro colorimetric cell death assay (MTT assay)", "conditions": "SiHa (cervical cancer), 48 hours", "method": "as §3"}, "Hep3B": {"system": "Hep3B", "assay": "In vitro colorimetric cell death assay (MTT assay)", "conditions": "Hep3B (hepatic cancer), 48 hours", "method": "as §3"}}, "data": [{"compound": "N.N.[Cl][Pt][Cl]", "note": "[Cisplatin]", "values": [{"measurement": "effect on cell / CD44 population", "setting": "[1]; IC10 drug concentration", "result": "most of the cells remain unaffected"}, {"measurement": "effect on CD44 cell population", "setting": "[1]; IC25 drug concentration", "result": "good number of CD44 cell population surviving"}, {"measurement": "# of 3D Spheres Formed (±SD)", "setting": "MDA MB 231 cell line; MDAMB 231, 1.1 uM", "result": "35(±4)"}, {"measurement": "# of 3D Spheres Formed (±SD)", "setting": "MDA MB 231 cell line; MDAMB 231, 11 uM", "result": "24(±2)"}, {"measurement": "# of 3D Spheres Formed (±SD)", "setting": "MDA MB 231 cell line; MDAMB 231, 110 uM", "result": "16(±2)"}, {"measurement": "IC50", "setting": "DU145", "result": 33.1, "unit": "µM"}, {"measurement": "IC50", "setting": "T47D [2]", "result": 39.8, "unit": "µM"}, {"measurement": "IC50", "setting": "LnCaP [3]", "result": 31.6, "unit": "µM"}, {"measurement": "IC50", "setting": "HCT-15 [4]", "result": 40, "unit": "µM"}, {"measurement": "IC50", "setting": "PC3", "result": 52.5, "unit": "µM"}, {"measurement": "IC50", "setting": "L929 [5]", "result": 9.44, "unit": "µM"}, {"measurement": "IC50", "setting": "SiHa [6]", "result": 19.5, "unit": "µM"}, {"measurement": "IC50", "setting": "T47D [7]", "result": 95.5, "unit": "µM"}, {"measurement": "IC50", "setting": "Colo205", "result": 44.3, "unit": "µM"}, {"measurement": "IC50", "setting": "LnCaP [8]", "result": 38.4, "unit": "µM"}, {"measurement": "IC50", "setting": "NCIH23", "result": 45.7, "unit": "µM"}, {"measurement": "IC50", "setting": "Colo320", "result": 38.3, "unit": "µM"}, {"measurement": "IC50", "setting": "HCT-15 [9]", "result": 49.1, "unit": "µM"}, {"measurement": "IC50", "setting": "L929 [10]", "result": 38, "unit": "µM"}, {"measurement": "IC50", "setting": "SiHa [11]", "result": 43.2, "unit": "µM"}, {"measurement": "IC50", "setting": "Hep3B", "result": 37.6, "unit": "µM"}]}, {"compound": "COc1ccc(/C=C/C(=O)c2cccc(Nc3c4ccc(Cl)cc4nc4ccc(OC)cc34)c2)cc1", "note": "[Formula III, 1-(3-(6-chloro-2-methoxyacridin-9-ylamino)phenyl)-3-(4-methoxyphenyl)prop-2-en-1-one]", "values": [{"measurement": "sphere reduction as compared to standard drug Cisplatin", "setting": "MDA MB 231 cell line; MDA MB 231", "result": "Significant sphere reduction"}, {"measurement": "# of 3D Spheres Formed (±SD)", "setting": "MDA MB 231 cell line; MDAMB 231, 1.1 uM", "result": "15(±2)"}, {"measurement": "# of 3D Spheres Formed (±SD)", "setting": "MDA MB 231 cell line; MDAMB 231, 11 uM", "result": "0(±0)"}, {"measurement": "# of 3D Spheres Formed (±SD)", "setting": "MDA MB 231 cell line; MDAMB 231, 110 uM", "result": "0(±0)"}]}]}
